Laboratory results: patent US20130052204A1, “(POLY)-GLYCEROLPHOSPHATE-BASED ANTI-GRAM POSITIVE BACTERIAL VACCINE” (priority 2009, published 2013)
“Also recorded” adds a separate entry of the source.

Experiments:
Assay type in all cases: binding
Pagibaximab (anti-LTA) = assay: ELISA: biotinylated LTA or PGP added to Pagibaximab-coated plates; conditions: for O.D. readings: Pagibaximab-coated wells
Protocol: (§1) ELISA plates (96-well) were coated overnight with […] of Pagibaximab (anti-LTA), Zantibody (anti-peptidoglycan), or Synagis (anti-RSV), all of which are chimeric IgG1 antibodies. PGP was prepared as described above in Example 1, and LTA was extracted from S. aureus. The plates were then developed with horseradish peroxidase for 30 minutes.

[1] = test system: Zantibody (anti-peptidoglycan); assay: ELISA: biotinylated LTA or PGP added to Zantibody-coated plates; conditions: anti-peptidoglycan-coated wells
Protocol: as §1

Synagis (anti-RSV) = assay: ELISA: biotinylated LTA or PGP added to Synagis-coated plates; conditions: Synagis-coated wells
Protocol: as §1

[2] = biotinylated LTA or PGP at 0.004 μg/ml
[3] = biotinylated LTA or PGP at 0.012 μg/ml
[4] = biotinylated LTA or PGP at 0.037 μg/ml
[5] = biotinylated LTA or PGP at 0.1 μg/ml
[6] = biotinylated LTA or PGP at 0.33 μg/ml
[7] = biotinylated LTA or PGP at 1 μg/ml
[8] = biotinylated LTA or PGP at 3 μg/ml

poly-glycerolphosphate [PGP]
O.D. readings (Pagibaximab (anti-LTA); [2]): 0.34
O.D. readings (Pagibaximab (anti-LTA); [3]): 0.51
O.D. readings (Pagibaximab (anti-LTA); [4]): 0.67
O.D. readings (Pagibaximab (anti-LTA); [5]): 0.89
O.D. readings (Pagibaximab (anti-LTA); [6]): 1.09
O.D. readings (Pagibaximab (anti-LTA); [7]): 1.42
O.D. readings (Pagibaximab (anti-LTA); biotinylated LTA or PGP at 3 μg/ml, one hour): 1.91
recognition / binding by Pagibaximab (in words) (Pagibaximab (anti-LTA); compared with LTA from S. aureus): recognized; also recorded: binds equally well
O.D. readings [1, 2]: <0.02
O.D. readings [1, 3]: <0.02
O.D. readings [1, 4]: <0.02
O.D. readings [1, 5]: <0.02
O.D. readings [1, 6]: <0.02
O.D. readings [1, 7]: <0.02
O.D. readings [1, 8]: 0.03
O.D. readings (Synagis (anti-RSV); [2]): <0.02
O.D. readings (Synagis (anti-RSV); [3]): <0.02
O.D. readings (Synagis (anti-RSV); [4]): <0.02
O.D. readings (Synagis (anti-RSV); [5]): <0.02
O.D. readings (Synagis (anti-RSV); [6]): <0.02
O.D. readings (Synagis (anti-RSV); [7]): <0.02
O.D. readings (Synagis (anti-RSV); [8]): <0.02
